# Source: patent US20220323406A1, “METHODS AND COMPOSITIONS FOR DIFFERENTIATING STEM CELLS” (Massachusetts Institute of Technology, priority 2019, published 2022)
# What was measured:
# ENR+CD organoids = assay: Primary screen: ATP (CellTiter-Glo 3D, CTG) cell number/viability, 2.5-D 384-well ENR+CD organoids;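 further: compounds given at plating and again on day 3 over a 6-day differentiation from ENR+CV stem-cell-enriched precursors, ATP measured on day 6, plate median as control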
# [1] = tested on: ENR+CD organoids (ISC to Paneth cell differentiation); assay: Primary screen: CCh-stimulated lysozyme secretion LYZ.S, 2.5-D 384-well ENR+CD organoid differentiation; assay type: cell-based, mouse; settings: primary screen
# From the text: (§1) High-throughput screening.
# [2] = tested on: ENR+CD organoids (ISC to Paneth cell differentiation); assay: Primary screen: basal (non-stimulated) lysozyme secretion LYZ.NS, 2.5-D 384-well ENR+CD organoid differentiation; assay type: cell-based, mouse
# From the text: as §1
# [3] = primary screen; dose 0.40 uM; FC vs plate median
# [4] = primary screen; dose 2.00 uM; FC vs plate median
# [5] = primary screen; dose 10.00 uM; FC vs plate median
# [6] = primary screen, dose 0.40 uM, standard z score
# [7] = primary screen, dose 2.00 uM, standard z score
# [8] = primary screen, dose 10.00 uM, standard z score
# [9] = primary screen, dose 0.08 uM, FC relative to plate median
# [10] = primary screen, dose 0.08 uM, standard z score
# [11] = primary screen, dose 0.40 uM, FC relative to plate median
# [12] = primary screen, dose 2.00 uM, FC relative to plate median
# [13] = primary screen, dose 10.00 uM, FC relative to plate median
# [14] = primary screen, standard z score, dose 0.08 uM
# [15] = primary screen, standard z score, dose 0.40 uM
# [16] = primary screen, standard z score, dose 2.00 uM
# [17] = primary screen, standard z score, dose 10.00 uM
structure (smiles),measurement,setting,value
CN(Cc1cnc2nc(N)nc(N)c2n1)c1ccc(C(=O)N[C@@H](CCC(=O)O)C(=O)O)cc1 [Methotrexate],Dose.FC.CTG (log2 fold change),"ENR+CD organoids; primary screen, dose 0.08 uM",−0.615
same,Dose.FC.CTG,ENR+CD organoids; [3],−0.722 log2 fold change
same,Dose.FC.CTG,ENR+CD organoids; [4],−0.701 log2 fold change
same,Dose.FC.CTG,ENR+CD organoids; [5],−0.642 log2 fold change
same,Dose.FC.LYZ.S (log2 fold change),[1]; dose 0.08 uM,−0.159
same,Dose.FC.LYZ.S,"[1]; dose 0.40 uM, FC vs plate median",−0.129 log2 fold change
same,Dose.FC.LYZ.S,"[1]; dose 2.00 uM, FC vs plate median",−0.177 log2 fold change
same,Dose.FC.LYZ.S,"[1]; dose 10.00 uM, FC vs plate median",−0.156 log2 fold change
same,Dose.FC.LYZ.NS (log2 fold change),"[2]; primary screen, dose 0.08 uM",−0.097
same,Z.LYZ.NS (standard z score),"[2]; primary screen, dose 0.08 uM",−0.843
same,Z.LYZ.NS,[2]; [6],−0.332
same,Z.LYZ.NS,[2]; [7],−1.132
same,Z.LYZ.NS,[2]; [8],−0.658
same,Dose.FC.LYZ.NS,[2]; [3],−0.038 log2 fold change
same,Dose.FC.LYZ.NS,[2]; [4],−0.130 log2 fold change
same,Dose.FC.LYZ.NS,[2]; [5],−0.076 log2 fold change
Cc1nnc(C(=O)NC(C)(C)c2nc(C(=O)NCc3ccc(F)cc3)c(O)c(=O)n2C)o1 [Raltegravir (MK-0518)],Dose.FC.CTG,ENR+CD organoids; [9],0.108 log2 fold change
same,Z.CTG,ENR+CD organoids; [10],0.258
same,Dose.FC.CTG,ENR+CD organoids; [11],0.094 log2 fold change
same,Z.CTG,ENR+CD organoids; [6],0.224
same,Dose.FC.CTG,ENR+CD organoids; [12],0.197 log2 fold change
same,Z.CTG,ENR+CD organoids; [7],0.471
same,Dose.FC.CTG,ENR+CD organoids; [13],0.170 log2 fold change
same,Z.CTG,ENR+CD organoids; [8],0.407
same,Dose.FC.LYZ.S,"[1]; dose 0.08 uM, FC relative to plate median",0.137 log2 fold change
same,Dose.FC.LYZ.S,"[1]; dose 0.40 uM, FC relative to plate median",0.037 log2 fold change
same,Dose.FC.LYZ.S,"[1]; dose 2.00 uM, FC relative to plate median",0.122 log2 fold change
same,Dose.FC.LYZ.S,"[1]; dose 10.00 uM, FC relative to plate median",0.183 log2 fold change
same,Dose.FC.LYZ.NS,[2]; [9],0.187 log2 fold change
same,Z.LYZ.NS,[2]; [10],1.627
same,Dose.FC.LYZ.NS,[2]; [11],0.035 log2 fold change
same,Z.LYZ.NS,[2]; [6],0.302
same,Dose.FC.LYZ.NS,[2]; [12],0.029 log2 fold change
same,Z.LYZ.NS,[2]; [7],0.254
same,Dose.FC.LYZ.NS,[2]; [13],0.042 log2 fold change
same,Z.LYZ.NS,[2]; [8],0.366
CCc1cccc2c3c([nH]c12)C(CC)(CC(=O)O)OCC3 (centres unmarked) [Etodolac],Dose.FC.CTG,"ENR+CD organoids; primary screen, dose 0.08 uM",−0.061 log2 fold change
same,Dose.FC.CTG,"ENR+CD organoids; primary screen, dose 0.40 uM",0.049 log2 fold change
same,Dose.FC.CTG,"ENR+CD organoids; primary screen, dose 2.00 uM",0.008 log2 fold change
same,Dose.FC.CTG,"ENR+CD organoids; primary screen, dose 10.00 uM",0.023 log2 fold change
same,Dose.FC.LYZ.S,[1]; dose 0.08 uM,0.034 log2 fold change
same,Dose.FC.LYZ.S,[1]; dose 0.40 uM,0.127 log2 fold change
same,Dose.FC.LYZ.S,[1]; dose 2.00 uM,0.070 log2 fold change
same,Dose.FC.LYZ.S,[1]; dose 10.00 uM,−0.011 log2 fold change
same,Dose.FC.LYZ.NS,"[2]; primary screen, dose 0.08 uM",0.046 log2 fold change
same,Dose.FC.LYZ.NS,"[2]; primary screen, dose 0.40 uM",0.036 log2 fold change
same,Dose.FC.LYZ.NS,"[2]; primary screen, dose 2.00 uM",0.052 log2 fold change
same,Dose.FC.LYZ.NS,"[2]; primary screen, dose 10.00 uM",−0.009 log2 fold change
same,Z.LYZ.NS,[2]; [14],0.400
same,Z.LYZ.NS,[2]; [15],0.314
same,Z.LYZ.NS,[2]; [16],0.452
same,Z.LYZ.NS,[2]; [17],−0.078
O=C(/C=C\n1cnc(-c2cc(C(F)(F)F)cc(C(F)(F)F)c2)n1)N1CC(F)(F)C1 [KPT-276],Dose.FC.CTG (log2 fold change),"ENR+CD organoids; primary screen, dose 0.08 uM",0.167
same,Z.CTG (standard z score),"ENR+CD organoids; primary screen, dose 0.08 uM",0.399
same,Dose.FC.CTG (log2 fold change),"ENR+CD organoids; primary screen, dose 0.40 uM",−0.044
same,Z.CTG (standard z score),"ENR+CD organoids; primary screen, dose 0.40 uM",−0.104
same,Dose.FC.CTG (log2 fold change),"ENR+CD organoids; primary screen, dose 2.00 uM",−0.413
same,Z.CTG (standard z score),"ENR+CD organoids; primary screen, dose 2.00 uM",−0.986
same,Dose.FC.CTG (log2 fold change),"ENR+CD organoids; primary screen, dose 10.00 uM",−0.703
same,Z.CTG (standard z score),"ENR+CD organoids; primary screen, dose 10.00 uM",−1.680
same,Dose.FC.LYZ.S (log2 fold change),[1]; dose 0.08 uM,0.133
same,Dose.FC.LYZ.S (log2 fold change),[1]; dose 0.40 uM,0.148
same,Dose.FC.LYZ.S (log2 fold change),[1]; dose 2.00 uM,−0.327
same,Dose.FC.LYZ.S (log2 fold change),[1]; dose 10.00 uM,−0.361
same,Dose.FC.LYZ.NS (log2 fold change),"[2]; primary screen, dose 0.08 uM",0.056
same,Z.LYZ.NS (standard z score),"[2]; primary screen, dose 0.08 uM",0.492
same,Dose.FC.LYZ.NS (log2 fold change),"[2]; primary screen, dose 0.40 uM",0.086
same,Z.LYZ.NS (standard z score),"[2]; primary screen, dose 0.40 uM",0.746
same,Dose.FC.LYZ.NS (log2 fold change),"[2]; primary screen, dose 2.00 uM",−0.224
same,Z.LYZ.NS (standard z score),"[2]; primary screen, dose 2.00 uM",−1.947
same,Dose.FC.LYZ.NS (log2 fold change),"[2]; primary screen, dose 10.00 uM",−0.256
same,Z.LYZ.NS (standard z score),"[2]; primary screen, dose 10.00 uM",−2.230
COc1ccc(C[C@@H](C)NC[C@H](O)c2ccc(O)c(NC=O)c2)cc1.COc1ccc(C[C@@H](C)NC[C@H](O)c2ccc(O)c(NC=O)c2)cc1.O=C(O)/C=C/C(=O)O [Formoterol Hemifumarate],Dose.FC.CTG,"ENR+CD organoids; primary screen, dose 0.08 uM",0.294 log2 fold change
same,Dose.FC.CTG,"ENR+CD organoids; primary screen, dose 0.40 uM",0.265 log2 fold change
same,Dose.FC.CTG,"ENR+CD organoids; primary screen, dose 2.00 uM",0.242 log2 fold change
same,Dose.FC.CTG,"ENR+CD organoids; primary screen, dose 10.00 uM",0.253 log2 fold change
same,Z.CTG,ENR+CD organoids; [14],0.703
same,Z.CTG,ENR+CD organoids; [15],0.633
same,Z.CTG,ENR+CD organoids; [16],0.578
same,Z.CTG,ENR+CD organoids; [17],0.604
same,Dose.FC.LYZ.S,[1]; dose 0.08 uM,0.206 log2 fold change
same,Dose.FC.LYZ.S,[1]; dose 0.40 uM,0.293 log2 fold change
same,Dose.FC.LYZ.S,[1]; dose 2.00 uM,0.090 log2 fold change
same,Dose.FC.LYZ.S,[1]; dose 10.00 uM,0.011 log2 fold change
same,Dose.FC.LYZ.NS,"[2]; primary screen, dose 0.08 uM",0.145 log2 fold change
same,Dose.FC.LYZ.NS,"[2]; primary screen, dose 0.40 uM",0.073 log2 fold change
same,Dose.FC.LYZ.NS,"[2]; primary screen, dose 2.00 uM",0.048 log2 fold change
same,Dose.FC.LYZ.NS,"[2]; primary screen, dose 10.00 uM",0.013 log2 fold change
same,Z.LYZ.NS,[2]; [14],1.263
same,Z.LYZ.NS,[2]; [15],0.638
same,Z.LYZ.NS,[2]; [16],0.420
same,Z.LYZ.NS,[2]; [17],0.114
